Test system: 699152-130-R-J1-PDC complex spheroid viability
Assay: Anticancer human tumor 699152-130-R-J1-PDC patient-derived pancreatic carcinoma cell line growth inhibition [POLQ]
Details: for IC50: curve of first compound; for viability, T/C: stronger effect = lower value
How it was run: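 Growth inhibition in 3D: complex spheroids (tumor PDC, HUVEC, MSC) treated with POLQ inhibitor combinations; where Cmax unknown, highest tested concentration 10 microM, except SN-38 at 1 microM.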

[1] = second compound 0.0316 µM, first compound 0.0316 µM
[2] = second compound 0.0316 µM, first compound 0.1 µM
[3] = second compound 0.0316 µM, first compound 0.316 µM
[4] = second compound 0.0316 µM, first compound 1 µM
[5] = second compound 0.0316 µM, first compound 3.16 µM
[6] = second compound 0.0316 µM, first compound 10 µM
[7] = second compound 0.1 µM, first compound 0.0316 µM
[8] = second compound 0.1 µM, first compound 0.1 µM
[9] = second compound 0.1 µM, first compound 0.316 µM
[10] = second compound 0.1 µM, first compound 1 µM
[11] = second compound 0.1 µM, first compound 3.16 µM
[12] = second compound 0.1 µM, first compound 10 µM
[13] = second compound 0.316 µM, first compound 0.0316 µM
[14] = second compound 0.316 µM, first compound 0.1 µM
[15] = second compound 0.316 µM, first compound 0.316 µM
[16] = second compound 0.316 µM, first compound 1 µM
[17] = second compound 0.316 µM, first compound 3.16 µM
[18] = second compound 0.316 µM, first compound 10 µM
[19] = second compound 1 µM, first compound 0.0316 µM
[20] = second compound 1 µM, first compound 0.1 µM
[21] = second compound 1 µM, first compound 0.316 µM
[22] = second compound 1 µM, first compound 1 µM
[23] = second compound 1 µM, first compound 3.16 µM
[24] = second compound 1 µM, first compound 10 µM
[25] = second compound 3.16 µM, first compound 0.0316 µM
[26] = second compound 3.16 µM, first compound 0.1 µM
[27] = second compound 3.16 µM, first compound 0.316 µM
[28] = second compound 3.16 µM, first compound 1 µM
[29] = second compound 3.16 µM, first compound 3.16 µM
[30] = second compound 3.16 µM, first compound 10 µM
[31] = second compound 10 µM, first compound 0.0316 µM
[32] = second compound 10 µM, first compound 0.1 µM
[33] = second compound 10 µM, first compound 0.316 µM
[34] = second compound 10 µM, first compound 1 µM
[35] = second compound 10 µM, first compound 3.16 µM
[36] = second compound 10 µM, first compound 10 µM
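Also: spheroids exposed to agents for 7 days before viability reading.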
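For viability, T/C in this document: percent of DMSO vehicle control viability so 100% = vehicle and 0% = no viable signal.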

## CC1COCCN1c1cc(-c2ccnn2C)c2ccnc(-c3ccn[nH]3)c2n1 (stereo unspecified) + COC1C(OC(N)=O)C(O)C(Oc2ccc3c(O)c(NC(=O)c4ccc(O)c(CC=C(C)C)c4)c(=O)oc3c2C)OC1(C)C
Second compound 0.0316 µM
  IC50: > 10 µM
Second compound 0.1 µM
  IC50: > 10 µM
Second compound 0.316 µM
  IC50: 8.54 µM
Second compound 1 µM
  IC50: > 10 µM
Second compound 3.16 µM
  IC50: > 10 µM
Second compound 10 µM
  IC50: > 10 µM
[1]
  viability, T/C: 94.7%
[2]
  viability, T/C: 101%
[3]
  viability, T/C: 71.5%
[4]
  viability, T/C: 57.2%
[5]
  viability, T/C: 58.6%
[6]
  viability, T/C: 53.3%
[7]
  viability, T/C: 104%
[8]
  viability, T/C: 97.1%
[9]
  viability, T/C: 71.1%
[10]
  viability, T/C: 57.1%
[11]
  viability, T/C: 57%
[12]
  viability, T/C: 47%
[13]
  viability, T/C: 104%
[14]
  viability, T/C: 99.9%
[15]
  viability, T/C: 66%
[16]
  viability, T/C: 56.4%
[17]
  viability, T/C: 63.1%
[18]
  viability, T/C: 47.5%
[19]
  viability, T/C: 99.2%
[20]
  viability, T/C: 93.3%
[21]
  viability, T/C: 67.3%
[22]
  viability, T/C: 64%
[23]
  viability, T/C: 55.5%
[24]
  viability, T/C: 51.5%
[25]
  viability, T/C: 96.3%
[26]
  viability, T/C: 85.3%
[27]
  viability, T/C: 76.8%
[28]
  viability, T/C: 56.1%
[29]
  viability, T/C: 56.1%
[30]
  viability, T/C: 52.6%
[31]
  viability, T/C: 102%
[32]
  viability, T/C: 80.8%
[33]
  viability, T/C: 65.6%
[34]
  viability, T/C: 56.5%
[35]
  viability, T/C: 58.3%
[36]
  viability, T/C: 50%

## CC1COCCN1c1cc(-c2ccnn2C)c2ccnc(-c3ccn[nH]3)c2n1 (stereo unspecified) + Nc1ccc(C#CCN(C(=O)Cc2ncc(C(F)(F)F)cc2C(F)(F)F)c2ccc(F)cc2)nn1
Second compound 0.0316 µM
  IC50: > 10 µM
Second compound 0.1 µM
  IC50: > 10 µM
Second compound 0.316 µM
  IC50: > 10 µM
Second compound 1 µM
  IC50: 6.83 µM
Second compound 3.16 µM
  IC50: > 10 µM
Second compound 10 µM
  IC50: > 10 µM
[1]
  viability, T/C: 88.4%
[2]
  viability, T/C: 91.3%
[3]
  viability, T/C: 80.4%
[4]
  viability, T/C: 63.5%
[5]
  viability, T/C: 52.9%
[6]
  viability, T/C: 50%
[7]
  viability, T/C: 90.9%
[8]
  viability, T/C: 89%
[9]
  viability, T/C: 75.4%
[10]
  viability, T/C: 66.6%
[11]
  viability, T/C: 52.8%
[12]
  viability, T/C: 53.3%
[13]
  viability, T/C: 102%
[14]
  viability, T/C: 90.6%
[15]
  viability, T/C: 75.4%
[16]
  viability, T/C: 58.9%
[17]
  viability, T/C: 48.5%
[18]
  viability, T/C: 53.9%
[19]
  viability, T/C: 101%
[20]
  viability, T/C: 82.8%
[21]
  viability, T/C: 71.4%
[22]
  viability, T/C: 58%
[23]
  viability, T/C: 52.2%
[24]
  viability, T/C: 49.2%
[25]
  viability, T/C: 107%
[26]
  viability, T/C: 92.7%
[27]
  viability, T/C: 75.6%
[28]
  viability, T/C: 55.3%
[29]
  viability, T/C: 47.2%
[30]
  viability, T/C: 57%
[31]
  viability, T/C: 114%
[32]
  viability, T/C: 94.3%
[33]
  viability, T/C: 80.9%
[34]
  viability, T/C: 58%
[35]
  viability, T/C: 64.5%
[36]
  viability, T/C: 49.9%

## CCCS(=O)(=O)Nc1ccc(F)c(C(=O)c2c[nH]c3ncc(-c4ccc(Cl)cc4)cc23)c1F + Nc1ccc(C#CCN(C(=O)Cc2ncc(C(F)(F)F)cc2C(F)(F)F)c2ccc(F)cc2)nn1
Second compound 0.0316 µM
  IC50: 8.52 µM
Second compound 0.1 µM
  IC50: 8.88 µM
Second compound 0.316 µM
  IC50: 8.62 µM
Second compound 1 µM
  IC50: 8.35 µM
Second compound 3.16 µM
  IC50: 9.38 µM
Second compound 10 µM
  IC50: > 10 µM
[1]
  viability, T/C: 101%
[2]
  viability, T/C: 113%
[3]
  viability, T/C: 118%
[4]
  viability, T/C: 167%
[5]
  viability, T/C: 167%
[6]
  viability, T/C: 36.3%
[7]
  viability, T/C: 109%
[8]
  viability, T/C: 117%
[9]
  viability, T/C: 119%
[10]
  viability, T/C: 143%
[11]
  viability, T/C: 188%
[12]
  viability, T/C: 40%
[13]
  viability, T/C: 111%
[14]
  viability, T/C: 113%
[15]
  viability, T/C: 132%
[16]
  viability, T/C: 175%
[17]
  viability, T/C: 184%
[18]
  viability, T/C: 36.2%
[19]
  viability, T/C: 96.2%
[20]
  viability, T/C: 116%
[21]
  viability, T/C: 119%
[22]
  viability, T/C: 133%
[23]
  viability, T/C: 166%
[24]
  viability, T/C: 35.8%
[25]
  viability, T/C: 114%
[26]
  viability, T/C: 123%
[27]
  viability, T/C: 124%
[28]
  viability, T/C: 163%
[29]
  viability, T/C: 179%
[30]
  viability, T/C: 44.5%
[31]
  viability, T/C: 124%
[32]
  viability, T/C: 128%
[33]
  viability, T/C: 131%
[34]
  viability, T/C: 161%
[35]
  viability, T/C: 192%
[36]
  viability, T/C: 52.9%

Source: PubChem BioAssay AID1963835 (Molecular Pharmacology Branch, DTP, NCI, 2024)
